This note sets out measurements from patent publication US9427408B2, “Silica-matrix forming compositions, materials formed therefrom, and methods of using the same” (priority 2011, dated 2016).

One series concerns HFF cells. It counts as cell-based. The settings on record: 0.19 and 0.38 M EG, 48 h incubation. The procedure:
(§1) Human foreskin fibroblasts (HFF), and mouse embryonic fibroblasts (MEF) were obtained from the American Type Cell Collection (Manasas, Va.). HFF and MEF cells were cultured in DMEM basal media supplemented with 15% fetal bovine serum (FBS), and 1% penicillin/streptomycin. Cells were incubated in a 5% CO2 atmosphere at 37° C. until they reached 80-90% confluence. Cells were then washed with phosphate buffer saline (PBS) and trypsinized with 0.25% Trypsin-EDTA for 5 min at 37° C. For cytotoxicity measurements and encapsulation experiments, cells were centrifuged at 800 rpm for 5 min. The supernatant was removed and the pelleted cells were suspended in their own growth media at a concentration of about 500,000 cells/ml.
(§2) Membrane integrity of the encapsulated cells in silica and SPEG gels was measured using a live-dead fluorescence assay containing Hoechst (H) and Propidium Iodide (PI) fluorescent dyes. A Nikon Eclipse T200 microscope (Nikon Instruments Inc., Melville, N.Y.) equipped with 10×, and 20× objectives were used to collect the bright field and fluorescent images.
(§3) MA of the encapsulated cells was measured with alamar blue (AB) fluorescence. For fluorescence measurements a SpectraMAX Gemini microplate reader (Molecular Devices Inc, Sunnyvale, Calif.) was used. The samples were excited at 540 nm and their emission was measured at 590 nm. LDH assay was performed 24 h after encapsulation of the cells. The assay was performed using a commercially available kit (Roche Applied Science, Indianapolis, Ind.). The levels of extracellular LDH activity were determined using a UV-vis SpectraMAX microplate reader (Molecular Devices, Sunnyvale, Calif.) by absorbance at 492 nm.
(§4) During the encapsulation process, mammalian cells were exposed to individual and aggregated SNPs in the surrounding solutions as gel formation proceeds. SNPs can be mildly cytotoxic. The toxicity of the encapsulation process was analyzed by incubating mammalian cells in 0.01 and 0.03 M SNP solutions. These were the concentrations used in the gels. After 24 h of incubation in the presence of SNPs, the cell membrane integrity and MA was measured.
(§5) Another factor for cytotoxicity is the formation of cytotoxic by-products such as EG during the hydrolysis reaction. HFF and MEF cells were incubated with 0.19 and 0.38 M EG to test for cytotoxicity. The concentrations of EG used in these experiments were based on the stoichiometric reaction of 10% (v/v) THEOS assuming a complete reaction. […] FIG. 6 illustrates cytotoxicity of SNPs and EG on: (A) HFF, (B) MEF.

The subject of the next series is MEF cells. It counts as cell-based. The settings on record: 0.19 and 0.38 M EG, 48 h incubation. The procedure:
as §1, §2, §3, §4, §5

For `OCCO` [EG, ethylene glycol], the cell membrane damage entry in the series with HFF cells and in the series on MEF cells was “did not cause any cell membrane damage” throughout. Also, the “effect on MA of the cells” value in the series on HFF cells and in the series with MEF cells was “nor had any effects on the MA” in each case.
